The text below walks through data of patent US9757363B2, “SNS-595 and methods of using the same” (Sunesis Pharmaceuticals, Inc., priority 2004, dated 2017).

Like-named read-outs stand apart in the source and are kept apart here.

A short description of this data set: Pharmacokinetics of SNS-595 in cancer patients. It is filed as in vivo, human. The conditions noted are these: for AUC(0-t) / AUC(0-inf) / MRT inf / Cmax: human, intravenous. On the procedure: SNS-595 was administered to enrolled patients for up to six cycles. A cycle is defined as a three-week period, with SNS-595 administered on the first day of each cycle (day 0), followed by at least 21 days of observation. SNS-595 was administered to cohorts of at least 3 patients and dose escalation occurred by sequential cohort.

Where [1] appears, read: 48 mg/m2, plasma, dose 48 mg/m^2.
Setting [2] is: 60 mg/m2, plasma, dose 60 mg/m^2.

On to `CN[C@H]1CN(c2ccc3c(=O)c(C(=O)O)cn(-c4nccs4)c3n2)C[C@@H]1OC` [SNS-595, (+)-1,4-dihydro-7-[(3S,4S)-3-methoxy-4-(methylamino)-1-pyrrolidinyl]-4-oxo-1-(2-thiazoyl)-1,8-naphthyridine-3-carboxylic acid], for which the “relation of dose to AUC^oo” value (dose escalation by sequential cohort) was “linear”. Further, the AUC(0-t) (3 mg/m2, plasma, dose 3 mg/m^2) was determined as 750 ng·h/mL; the area under the curve AUC(0-t) (6 mg/m2, plasma, dose 6 mg/m^2) turned out to be 2400 ng·h/mL; the AUC(0-t) (12 mg/m2, plasma, dose 12 mg/m^2) is 5400 ng·h/mL; the AUC(0-t) (24 mg/m2, plasma, dose 24 mg/m^2) was 11100 ng·h/mL; the AUC(0-t) under setting [1] was 21100 ng·h/mL; the area under the curve AUC(0-t) under setting [2] stood at 28100 ng·h/mL. The AUC(0-inf) (6 mg/m2, plasma, dose 6 mg/m^2, read-out: AUCINF_obs) was found to be 2990 ng·h/mL; the AUC(0-inf) (48 mg/m2, plasma, dose 48 mg/m^2, read-out: AUCINF_obs) was found to be 27300 ng·h/mL; the AUC(0-inf) (60 mg/m2, plasma, dose 60 mg/m^2, read-out: AUCINF_obs) stood at 33600 ng·h/mL. Further, the MRT inf is, setting by setting: (6 mg/m2, plasma, dose 6 mg/m^2, read-out: MRTINF_obs) 29.1 h; (12 mg/m2, plasma, dose 12 mg/m^2, read-out: MRTINF_obs) 23.7 h; (24 mg/m2, plasma, dose 24 mg/m^2, read-out: MRTINF_obs) 21.6 h; (48 mg/m2, plasma, dose 48 mg/m^2, read-out: MRTINF_obs) 28.9 h; (60 mg/m2, plasma, dose 60 mg/m^2, read-out: MRTINF_obs) 23.7 h. For the same molecule, the highest level under setting [1] (Cmax) was 2870 ng/mL and the Cmax under setting [2] amounted to 4540 ng/mL. Further, the CO by setting is: (plasma, dose 3 mg/m^2) 152.25 ng/mL; (plasma, dose 6 mg/m^2) 379.69 ng/mL; (plasma, dose 12 mg/m^2) 2888.66 ng/mL; (plasma, dose 24 mg/m^2) 2924.46 ng/mL; (plasma, dose 48 mg/m^2) 1984.52 ng/mL; (plasma, dose 60 mg/m^2) 4797.47 ng/mL. The molecule also showed a Vss_obs (plasma, dose 48 mg/m^2) of 1.46 L/kg.

Broadly, the AUC(0-t) is the area under the concentration-time curve up to a stated or last time point. Read a low AUC(0-t) as less exposure. Usually Cmax stands for the peak of the concentration-time curve.
